Laboratory results: PMC9127186, “Molecular Basis Underlying Hepatobiliary and Renal Excretion of Phenolic Acids of Salvia miltiorrhiza Roots (Danshen)” (Frontiers in Pharmacology, 2022)

Legend:
[1] = biological target: T1, human OAT4 (Homo sapiens, UniProt Q9NSA0); experiment: Cellular transport assay, HEK-293 cells expressing human OAT4; conditions: positive substrate 20 μM, 10 min; human OAT4
T1 sequence (Q9NSA0 1-550): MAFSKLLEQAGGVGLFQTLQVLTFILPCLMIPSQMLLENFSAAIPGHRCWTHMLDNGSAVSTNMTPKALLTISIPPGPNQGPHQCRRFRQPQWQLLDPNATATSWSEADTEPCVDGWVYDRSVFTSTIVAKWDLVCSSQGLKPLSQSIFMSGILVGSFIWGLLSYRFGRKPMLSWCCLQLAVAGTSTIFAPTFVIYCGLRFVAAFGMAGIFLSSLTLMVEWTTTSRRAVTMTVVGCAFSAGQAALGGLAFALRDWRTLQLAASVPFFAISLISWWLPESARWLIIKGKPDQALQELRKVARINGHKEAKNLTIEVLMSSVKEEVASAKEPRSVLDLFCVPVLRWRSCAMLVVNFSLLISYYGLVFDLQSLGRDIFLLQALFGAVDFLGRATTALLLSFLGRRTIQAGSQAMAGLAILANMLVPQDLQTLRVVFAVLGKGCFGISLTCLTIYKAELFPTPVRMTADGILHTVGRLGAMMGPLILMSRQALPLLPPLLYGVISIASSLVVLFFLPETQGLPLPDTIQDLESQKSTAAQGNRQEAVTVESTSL
Protocol: (§1) Briefly, HEK-293 cells were grown, at 37°C and 5% CO2, in Dulbecco’s modified Eagle’s medium, which was fortified with 10% fetal bovine serum, 1% minimal essential medium nonessential amino acids, and 1% antibiotic-antimycotic solution. A day before transfection, cells were seeded onto 24-well poly-D-lysine-coated plates at a density of 2 × 10^5 cells per well. After incubation at 37°C and 5% CO2 for 24 h, the expression plasmid and the empty vector were introduced separately into the HEK293 cells with Lipofectamine 2000 transfection reagent (Invitrogen, Carlsbad, CA, United States), according to the manufacturer’s protocol to yield transporter-expressing cells and mock cells, respectively.
(§2) Transport studies were performed 48 h after the transfection. […] Differential uptake between the transfected cells and mock cells was defined as net transport ratio (TransportTC/TransportMC ratio), where TransportTC and TransportMC are the transport rates of a test Danshen compound into transfected and mock cells, respectively. […] The determination was performed under linear uptake conditions by incubation for 5 min. Table 1 summarizes the final concentrations of the test Danshen compounds for different transporters. All the incubation samples were analyzed by liquid chromatography/mass spectrometry.
(§3) GraFit software (version 5.0; Erithacus Software Ltd, Surrey, United Kingdom) was used to determine the K m and V max values by nonlinear regression analysis of initial transport rates as a function of substrate concentration.

[2] = biological target: T2, rat Oat3 (Rattus norvegicus, UniProt Q9R1U7); experiment: Cellular transport assay, HEK-293 cells expressing rat Oat3; conditions: positive substrate 20 μM, 10 min; rat Oat3
T2 sequence (Q9R1U7 1-536): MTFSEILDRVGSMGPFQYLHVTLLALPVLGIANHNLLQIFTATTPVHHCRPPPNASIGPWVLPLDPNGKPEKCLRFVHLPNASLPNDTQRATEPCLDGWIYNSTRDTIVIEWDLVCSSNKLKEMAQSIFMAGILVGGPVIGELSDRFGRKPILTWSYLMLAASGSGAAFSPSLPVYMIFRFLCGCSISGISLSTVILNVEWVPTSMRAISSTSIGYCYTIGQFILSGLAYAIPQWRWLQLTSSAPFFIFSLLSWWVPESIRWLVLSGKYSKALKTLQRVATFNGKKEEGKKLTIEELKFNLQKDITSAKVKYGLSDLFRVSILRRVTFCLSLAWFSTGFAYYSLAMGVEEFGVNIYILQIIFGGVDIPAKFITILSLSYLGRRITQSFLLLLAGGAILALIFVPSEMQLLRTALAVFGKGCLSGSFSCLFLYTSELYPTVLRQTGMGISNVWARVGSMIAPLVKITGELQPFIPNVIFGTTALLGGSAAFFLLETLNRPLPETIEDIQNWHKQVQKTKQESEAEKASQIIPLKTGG
Protocol: as §1, §2, §3

[3] = biological target: T3, human OAT3 (Homo sapiens, UniProt Q8TCC7); experiment: Cellular transport assay, HEK-293 cells expressing human OAT3; conditions: positive substrate 20 μM, 10 min; human OAT3
T3 sequence (Q8TCC7 1-542): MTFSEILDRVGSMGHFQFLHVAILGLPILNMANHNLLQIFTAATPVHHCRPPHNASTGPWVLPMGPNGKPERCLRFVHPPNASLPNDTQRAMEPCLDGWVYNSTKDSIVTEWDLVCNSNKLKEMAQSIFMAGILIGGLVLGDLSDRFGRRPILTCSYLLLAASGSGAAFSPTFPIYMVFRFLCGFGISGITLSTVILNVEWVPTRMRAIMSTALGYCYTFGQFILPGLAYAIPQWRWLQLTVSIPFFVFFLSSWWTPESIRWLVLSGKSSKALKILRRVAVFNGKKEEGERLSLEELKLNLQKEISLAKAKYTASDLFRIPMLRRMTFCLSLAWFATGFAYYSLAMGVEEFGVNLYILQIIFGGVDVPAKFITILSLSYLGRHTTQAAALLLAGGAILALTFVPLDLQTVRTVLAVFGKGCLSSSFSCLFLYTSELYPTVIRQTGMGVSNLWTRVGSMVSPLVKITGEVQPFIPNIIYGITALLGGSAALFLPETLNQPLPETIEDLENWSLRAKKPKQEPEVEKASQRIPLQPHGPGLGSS
Protocol: as §1, §2, §3

[4] = biological target: T4, human OATP2B1 (Homo sapiens, UniProt O94956); experiment: Cellular transport assay, HEK-293 cells expressing human OATP2B1; conditions: positive substrate 20 μM, 10 min; human OATP2B1
T4 sequence (O94956 1-709): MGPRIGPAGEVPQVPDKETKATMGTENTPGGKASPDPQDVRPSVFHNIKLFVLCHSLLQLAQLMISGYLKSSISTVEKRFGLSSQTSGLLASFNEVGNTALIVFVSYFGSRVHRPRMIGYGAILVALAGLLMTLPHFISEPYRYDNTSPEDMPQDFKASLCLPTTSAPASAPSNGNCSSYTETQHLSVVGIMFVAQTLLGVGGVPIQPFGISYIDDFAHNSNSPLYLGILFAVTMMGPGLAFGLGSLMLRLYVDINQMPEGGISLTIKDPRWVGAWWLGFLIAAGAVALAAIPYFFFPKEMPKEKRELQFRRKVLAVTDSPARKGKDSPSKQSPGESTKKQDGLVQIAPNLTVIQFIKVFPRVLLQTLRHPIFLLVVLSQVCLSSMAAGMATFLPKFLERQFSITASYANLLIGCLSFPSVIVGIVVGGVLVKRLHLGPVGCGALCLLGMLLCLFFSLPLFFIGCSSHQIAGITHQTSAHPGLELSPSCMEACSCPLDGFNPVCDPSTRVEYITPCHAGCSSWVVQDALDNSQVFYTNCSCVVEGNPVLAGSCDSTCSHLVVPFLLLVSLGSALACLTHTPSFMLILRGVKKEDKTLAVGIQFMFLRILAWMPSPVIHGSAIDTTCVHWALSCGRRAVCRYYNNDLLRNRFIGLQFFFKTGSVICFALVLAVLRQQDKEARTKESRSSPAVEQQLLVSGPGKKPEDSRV

In the case of `C[C@]12CC[C@@H]3c4ccc(OS(=O)(=O)O)cc4CC[C@H]3[C@@H]1CCC2=O` [E1S, estrone-3-sulfate, reference compound], the “TransportTC/TransportMC ratio, positive substrate” value (from here on “TransportTC/TransportMC ratio”) [1] is reported as 7.69 ± 1.74 (E1S), the “TransportTC/TransportMC ratio” value [2] is reported as 21.4 ± 6.8 (E1S) and the “TransportTC/TransportMC ratio” value [3] is reported as 10.2 ± 1.2 (E1S). For the same compound, the “TransportTC/TransportMC ratio” value [4] was 41.1 ± 1.5 (E1S).
